From US20080076808A1, “SKIN COMPOSITION” (MARS INCORPORATED, priority 2003, published 2008)
Like-named read-outs stand apart in the source and are kept apart here.

Columns and labels:
[1] = system: canine keratinocytes; test: In vitro ceramide synthesis assay (14C-serine incorporation); assay type: cell-based; settings: stated as 'has been shown'; FIGS. 2, 3, 7, 8
Experimental: Canine keratinocytes were obtained via explant culture of skin samples taken from healthy adult animals (4 mm biopsy). Samples are washed and dissected in cold PBS containing antibiotics. The epidermis is dissected away from the dermis and cut into 1 mm^2 pieces. The pieces of epidermis are then placed into individual wells of a 24 well collagen-coated plastic plate and briefly allowed to dry down (60 seconds). Green's medium supplemented with 10% fetal bovine serum is then added and the explants cultured for 7-10 days until keratinocytes begin growing out of the edges of the skin. The primary skin cells are now detached from the plastic and explant tissue using trypsin and moved onto a i3T3 (irradiated fibroblast) feeder layer. Cells are expanded on the feeder layer until near confluent at which time they can be moved onto plastic alone. The primary keratinocytes can be used for assays at this point or further expanded in number as required. Keratinocytes are seeded in collagen-coated 24 well plates at a density of 5×10^4 cells per well. These cells are allowed to settle overnight and then the media changed. Cells are then left for 4 days under proliferation promoting culture conditions (in the presence of bovine pituitary extract). Following the 4 days the media is changed to one that promotes differentiation and at this stage the supplement to be tested is added (see individual experiments). Following 6 days under these conditions [^14C]-Serine is added for the ceramide assay or [^14C]-Acetate added for the total lipid assay, in both cases at 0.5 microCi per well. Cells are incubated in the presence of the radioactive markers and supplement for 2 days. At the end of the incubation period cells were harvested using trypsin and washed using PBS. Lipids were subsequently extracted using Bligh-Dyer solution and then added to 4 ml of scintillation fluid. The radioactivity was counted with a liquid scintillation spectrometer. Results for the ceramide synthesis assays are seen in FIGS. 1-6. Results for total lipid synthesis assays are seen in FIGS. 7-8. […]

[2] = system: canine keratinocytes; settings: stated as 'known to'; FIG. 5; cited from earlier work

N[C@@H](Cc1c[nH]cn1)C(=O)O [Histidine, histidine]
epidermal ceramide synthesis [1]: increase

NC(=O)c1cccnc1 [Nicotinamide, nicotinamide]
epidermal ceramide synthesis [1]: increase

O=C(O)[C@@H]1CCCN1 [Proline, proline]
epidermal ceramide synthesis [1]: increase

Cc1ncc(CO)c(CO)c1O [Pyridoxine, pyridoxine]
epidermal ceramide synthesis [2]: increase
